Measurements as given in publication PMC8151276, “An Integrated Approach toward NanoBRET Tracers for Analysis of GPCR Ligand Engagement” (Molecules, 2021).

Legend:
Assay type in all cases: binding
CCR7 = molecular target: T1, CCR7 (Homo sapiens, UniProt P32248); assay: NanoBRET screen HiBiT-CCR7 in HEK293
T1 construct: purchased Promega (in-house HiBiT-GPCR construct library, NanoBRET)
T1 sequence (P32248 25-378): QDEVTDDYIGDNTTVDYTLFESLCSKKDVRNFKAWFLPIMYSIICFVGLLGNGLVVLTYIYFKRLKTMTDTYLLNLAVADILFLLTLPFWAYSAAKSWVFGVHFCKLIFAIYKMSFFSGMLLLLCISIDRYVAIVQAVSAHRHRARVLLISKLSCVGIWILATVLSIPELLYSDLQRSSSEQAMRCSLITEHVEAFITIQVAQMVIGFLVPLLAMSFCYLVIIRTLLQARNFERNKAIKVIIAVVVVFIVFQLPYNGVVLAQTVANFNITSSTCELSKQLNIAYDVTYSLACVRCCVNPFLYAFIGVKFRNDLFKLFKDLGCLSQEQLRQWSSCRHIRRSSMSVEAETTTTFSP
Experimental: (§1) Each tracer candidate was screened across the entire library of HiBiT-GPCR constructs using NanoBRET as the detection modality. As depicted in Figure 4A, the specificity of interactions was evaluated through decrease in BRET due to competitive displacement of a bound tracer by excess parental compound. Each tracer was analyzed for binding to each HiBiT-GPCR fusion in the absence and in the presence of competing parental compound. Briefly, HEK293 cells were transfected with HiBiT-GPCR constructs diluted into promoterless DNA to reduce expression and maximize translocation to the cell surface. Each tracer candidate was then screened at concentrations of 1 μM and 0.1 μM across cells expressing these fusions. Cells were treated for 1.5 h with tracer either alone or in the presence of 20 μM competing parental compound (i.e., control). BRET was measured upon addition of purified LgBiT and subsequent complementation with HiBiT genetically fused to a GPCR. The specificity of interactions was assessed through a decrease in BRET signal due to competitive displacement of the bound tracer. To further gauge the robustness of these interactions, the fold response over the control (i.e., BRETtracer/BRETcontrol) was calculated. We chose a 1.5-fold response, which translates to ≥7-fold signal over noise as the minimal threshold required to score an interaction as positive. […]. Below we highlight the screening results obtained for our exemplary fluorescent tracers based on Clozapine, Amitriptyline and AZD1283.
(§2) HiBiT-GPCR DNA constructs were diluted in 10 mM Tris pH 8 to a final concentration of 0.01 μg/μL, arrayed in 96-well plates and stored at −20 °C. For transfection, HEK293 cells were suspended in Opti-MEM (without phenol red) supplemented with 2% fetal bovine serum (Seradigm) and 100 units/mL penicillin–streptomycin (Gibco) at a final concentration of 220,000 cells/mL and dispensed into white 96-well plates at 90 μL/well. Subsequent transfections and screens were carried using an Agilent Bravo Automated Liquid Handling Platform. First, the 96-well HiBiT DNA arrays were diluted 25-fold in Opti-MEM (without serum or phenol red) to a final concentration of 0.0004 μg/μL and 20 μL of the diluted DNAs were transferred into new 96-well plates. Next, promoterless carrier DNA (1 μg/μL) was diluted 25-fold (0.04 μg/μL) and then dispensed into the diluted arrays at 20 μL/well. Following brief mixing, Viafect transfection reagent (Promega) diluted 16-fold into Opti-MEM was dispensed into the plates at 40 μL/well. After mixing by pipetting, plates were incubated for 10 min on the pipetting station deck. The DNA-transfection reagent complexes were then added to plates containing cells. To facilitate the screen, 10 μL of DNA-transfection reagent complexes were added in duplicates to the top 4 and bottom 4 rows, resulting in two identical 48-well arrays per plate. Plates with transfected cells were incubated for 18–20 h at 37 °C/5% CO2. A screen of each tracer across the entire library using two different concentrations requires duplicate plates of transfected cells. Depending on the number of tracers being screened, transfections can be scaled up using the same ratios. The next day, for each tracer, four 20× screening solutions in tracer dilution buffer (Promega) were prepared: two duplicates at final concentration of 20 μM and two duplicates at a final concentration of 2 μM. A competing unmodified compound was added to one of each duplicate at a final concentration of 400 μM. The four resulting solutions were diluted 4-fold in Opti-MEM without serum or phenol red to generate 5× solutions (5 µM and 0.5 µM tracer +/− 100 μM competing compound). To screen the library, a BioTek MultiFlo FX liquid dispenser was used to dispense 22.5 µL of tracer solution to the top 4 rows and 22.5 µL tracer + competing compound solution to the 4 bottom rows. Plates were briefly mixed on an orbital shaker and incubated for 1.5 h at room temperature. […]

HTR1B = molecular target: T2, HTR1B (Homo sapiens, UniProt P28222); assay: NanoBRET screen HiBiT-HTR1B in HEK293
T2 construct: purchased Promega (in-house HiBiT-GPCR construct library, NanoBRET)
Experimental: as §1, §2

OPRL1 = molecular target: T3, OPRL1 (Homo sapiens, UniProt P41146); assay: NanoBRET screen HiBiT-OPRL1 in HEK293
T3 construct: purchased Promega (in-house HiBiT-GPCR construct library, NanoBRET)
Experimental: as §1, §2

RXFP3 = molecular target: T4, RXFP3 (Homo sapiens, UniProt Q9NSD7); assay: NanoBRET screen HiBiT-RXFP3 in HEK293
T4 construct: purchased Promega (in-house HiBiT-GPCR construct library, NanoBRET)
T4 sequence (Q9NSD7 1-469): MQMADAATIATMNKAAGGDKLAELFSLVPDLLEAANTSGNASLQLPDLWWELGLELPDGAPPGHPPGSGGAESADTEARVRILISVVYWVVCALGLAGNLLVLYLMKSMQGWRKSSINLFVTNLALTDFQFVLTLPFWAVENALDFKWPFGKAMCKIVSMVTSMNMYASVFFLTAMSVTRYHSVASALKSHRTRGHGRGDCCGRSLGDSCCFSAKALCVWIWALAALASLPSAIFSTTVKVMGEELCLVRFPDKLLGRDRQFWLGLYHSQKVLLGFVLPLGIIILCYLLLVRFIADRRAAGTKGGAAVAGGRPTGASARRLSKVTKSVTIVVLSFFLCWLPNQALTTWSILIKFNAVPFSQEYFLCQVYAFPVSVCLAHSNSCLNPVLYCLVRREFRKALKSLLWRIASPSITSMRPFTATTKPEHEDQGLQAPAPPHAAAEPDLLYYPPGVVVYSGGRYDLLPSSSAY
Experimental: as §1, §2

NPBWR1 = molecular target: T5, NPBWR1 (Homo sapiens, UniProt P48145); assay: NanoBRET screen HiBiT-NPBWR1 in HEK293
T5 construct: purchased Promega (in-house HiBiT-GPCR construct library, NanoBRET)
T5 sequence (P48145 1-328): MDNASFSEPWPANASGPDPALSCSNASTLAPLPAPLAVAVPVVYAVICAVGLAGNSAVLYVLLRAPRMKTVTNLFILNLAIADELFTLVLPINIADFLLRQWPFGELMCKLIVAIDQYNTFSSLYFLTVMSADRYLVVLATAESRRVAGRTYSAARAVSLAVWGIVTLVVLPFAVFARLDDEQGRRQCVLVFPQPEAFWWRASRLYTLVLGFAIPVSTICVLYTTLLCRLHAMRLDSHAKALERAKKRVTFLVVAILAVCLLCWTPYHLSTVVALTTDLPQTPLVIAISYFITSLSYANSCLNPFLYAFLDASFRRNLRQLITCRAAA
Experimental: as §1, §2

T3 sequence (P41146 whole entry): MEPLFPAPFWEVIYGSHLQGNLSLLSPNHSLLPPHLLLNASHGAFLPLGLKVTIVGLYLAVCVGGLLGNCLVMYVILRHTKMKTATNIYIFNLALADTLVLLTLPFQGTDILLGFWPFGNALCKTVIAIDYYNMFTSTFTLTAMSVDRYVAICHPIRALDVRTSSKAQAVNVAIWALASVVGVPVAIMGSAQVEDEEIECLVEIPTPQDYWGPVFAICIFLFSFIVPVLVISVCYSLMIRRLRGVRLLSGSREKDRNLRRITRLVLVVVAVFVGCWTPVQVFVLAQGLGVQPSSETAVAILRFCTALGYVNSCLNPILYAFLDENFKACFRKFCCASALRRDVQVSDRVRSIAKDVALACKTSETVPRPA
T2 sequence (P28222 whole entry): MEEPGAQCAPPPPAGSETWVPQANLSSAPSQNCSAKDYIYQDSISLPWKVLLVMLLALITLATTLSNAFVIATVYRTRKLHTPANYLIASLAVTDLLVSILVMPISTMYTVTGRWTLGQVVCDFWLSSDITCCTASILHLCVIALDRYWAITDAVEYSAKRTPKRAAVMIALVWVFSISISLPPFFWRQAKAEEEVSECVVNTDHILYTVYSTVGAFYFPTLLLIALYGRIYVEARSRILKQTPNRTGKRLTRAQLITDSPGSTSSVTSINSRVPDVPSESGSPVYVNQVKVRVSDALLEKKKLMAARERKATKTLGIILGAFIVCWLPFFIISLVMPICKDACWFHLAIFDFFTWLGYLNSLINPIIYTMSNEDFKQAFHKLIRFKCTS

SMILES	NanoBRET Fold Response (CCR7; CCR7, tracer 0.1μM)	NanoBRET Fold Response (CCR7; CCR7, tracer 1μM)	NanoBRET Fold Response (HTR1B; HTR1B, tracer 0.1μM)	NanoBRET Fold Response (HTR1B; HTR1B, tracer 1μM)	NanoBRET Fold Response (OPRL1; OPRL1, tracer 0.1μM)	NanoBRET Fold Response (OPRL1; OPRL1, tracer 1μM)	NanoBRET Fold Response (RXFP3; RXFP3, tracer 0.1μM)	NanoBRET Fold Response (RXFP3; RXFP3, tracer 1μM)	NanoBRET Fold Response (NPBWR1; NPBWR1, tracer 0.1μM)	NanoBRET Fold Response (NPBWR1; NPBWR1, tracer 1μM)	other results
O=C(CCc1ccc2n1[B-](F)(F)[N+]1=C(c3ccc[nH]3)C=CC1=C2)NCCOCCOCCNC(=O)OCCOCCN1CCN(C2=Nc3ccccc3Sc3ccccc32)CC1 [Quetiapine-a-2-NB590]	1.03	1.01	1.03	1.58	0.90	1.00	0.88	0.92	1.01	1.04	
COc1ccccc1N1CCN(CCCCN2C(=O)c3ccc(CNC(=O)CCOCCOCCOCCOCCNC(=O)CCc4ccc5n4[B-](F)(F)[N+]4=C(c6ccc[nH]6)C=CC4=C5)cc3C2=O)CC1 [NAN-190-2-NB590]	0.97	0.99	1.73	1.25	0.97		1.02		1.02		
CN1CCN(C2=Nc3cc(Cl)ccc3N(CC(=O)NCCOCCOCCOCCOCCNC(=O)CCc3ccc4n3[B-](F)(F)[N+]3=C(c5ccc[nH]5)C=CC3=C4)c3ccccc32)CC1 [Clozapine-c-2-NB590]											NanoBRET Fold Response (CCR7; CCR7, 0.1μM tracer): 0.97; NanoBRET Fold Response (CCR7; CCR7, 1μM tracer): 1.04; NanoBRET Fold Response (HTR1B; HTR1B, 0.1μM tracer): 0.95; NanoBRET Fold Response (HTR1B; HTR1B, 1μM tracer): 1.47; NanoBRET Fold Response (OPRL1; OPRL1, 0.1μM tracer): 0.98; NanoBRET Fold Response (OPRL1; OPRL1, 1μM tracer): 0.99; NanoBRET Fold Response (RXFP3; RXFP3, 0.1μM tracer): 0.99; NanoBRET Fold Response (RXFP3; RXFP3, 1μM tracer): 1.05; NanoBRET Fold Response (NPBWR1; NPBWR1, 0.1μM tracer): 0.97; NanoBRET Fold Response (NPBWR1; NPBWR1, 1μM tracer): 1.00
COc1ccc2[nH]c(-c3ccc(CNC(=O)CCOCCOCCOCCOCCNC(=O)CCc4ccc5n4[B-](F)(F)[N+]4=C(c6ccc[nH]6)C=CC4=C5)cc3)c(CCNC(C)=O)c2n1 [AzomelatoninICO9-2-NB590]											NanoBRET Fold Response (CCR7; 0.1μM tracer): 1.02; NanoBRET Fold Response (CCR7; 1μM tracer): 0.98; NanoBRET Fold Response (HTR1B; 0.1μM tracer): 0.92; NanoBRET Fold Response (HTR1B; 1μM tracer): 1.13; NanoBRET Fold Response (OPRL1; 0.1μM tracer): 0.71; NanoBRET Fold Response (OPRL1; 1μM tracer): 1.05; NanoBRET Fold Response (RXFP3; 0.1μM tracer): 0.89; NanoBRET Fold Response (RXFP3; 1μM tracer): 1.22; NanoBRET Fold Response (NPBWR1; 0.1μM tracer): 0.87; NanoBRET Fold Response (NPBWR1; 1μM tracer): 1.04
O=C(CCOCCOCCOCCOCCNC(=O)CCc1ccc2n1[B-](F)(F)[N+]1=C(c3ccc[nH]3)C=CC1=C2)NCCCN1CCN(C2=Nc3cc(Cl)ccc3Nc3ccccc32)CC1 [Clozapine-a-2-NB590]											NanoBRET Fold Response (CCR7; CCR7, 0.1μM tracer): 1.01; NanoBRET Fold Response (CCR7; CCR7, 1μM tracer): 0.99; NanoBRET Fold Response (HTR1B; HTR1B, 0.1μM tracer): 4.16; NanoBRET Fold Response (HTR1B; HTR1B, 1μM tracer): 2.29; NanoBRET Fold Response (OPRL1; OPRL1, 0.1μM tracer): 0.99; NanoBRET Fold Response (OPRL1; OPRL1, 1μM tracer): 1.05; NanoBRET Fold Response (RXFP3; RXFP3, 0.1μM tracer): 1.04; NanoBRET Fold Response (RXFP3; RXFP3, 1μM tracer): 0.96; NanoBRET Fold Response (NPBWR1; NPBWR1, 0.1μM tracer): 1.07; NanoBRET Fold Response (NPBWR1; NPBWR1, 1μM tracer): 1.03
CCCn1c(=O)c2[nH]c(-c3ccc(OCC(=O)NCCNC(=O)CCOCCNC(=O)c4ccc(CNC(=O)CCc5ccc6n5[B-](F)(F)[N+]5=C(c7ccc[nH]7)C=CC5=C6)cc4)cc3)nc2n(CCC)c1=O [XAC-3-NB590]	0.99	1.04	0.66	1.24	1.12	0.72	0.95	0.92	1.03	0.96	
O=C(CCc1ccc2n1[B-](F)(F)[N+]1=C(c3ccc[nH]3)C=CC1=C2)NCc1ccc(C(=O)NCCOCCOCCNCC(O)COc2cccc3ccccc23)cc1 (stereo not drawn) [Propranolol-3-NB590]											NanoBRET Fold Response (CCR7; CCR7, 0.1μM): 1.03; NanoBRET Fold Response (CCR7; CCR7, 1μM): 1.01; NanoBRET Fold Response (HTR1B; HTR1B, 0.1μM): 0.99; NanoBRET Fold Response (HTR1B; HTR1B, 1μM): 1.06; NanoBRET Fold Response (OPRL1; OPRL1, 0.1μM): 0.96; NanoBRET Fold Response (OPRL1; OPRL1, 1μM): 1.01; NanoBRET Fold Response (RXFP3; RXFP3, 0.1μM): 1.14; NanoBRET Fold Response (RXFP3; RXFP3, 1μM): 1.08; NanoBRET Fold Response (NPBWR1; NPBWR1, 0.1μM): 1.03; NanoBRET Fold Response (NPBWR1; NPBWR1, 1μM): 0.96
O=C(CCc1ccc2n1[B-](F)(F)[N+]1=C(c3ccc[nH]3)C=CC1=C2)NCc1ccc(C(=O)NCCOCCC(=O)N[C@@H]2CC[C@@]3(O)[C@H]4Cc5ccc(O)c6c5[C@@]3(CCN4CC3CC3)[C@H]2O6)cc1 [Naltrexone-3-NB590]	1.07	1.05	1.01	1.33	1.54	0.99	0.98	1.05	0.92	1.19	
N#CN=C(NCCCOc1cccc(CN2CCCCC2)c1)NCCNC(=O)CCOCCOCCOCCOCCNC(=O)CCc1ccc2n1[B-](F)(F)[N+]1=C(c3ccc[nH]3)C=CC1=C2 [Aminopotentidine-2-NB590]	0.96	1.01	0.98	1.03	1.05	1.01	1.04	0.97	0.94	0.95	
